Data taken from PubChem BioAssay (NCI).
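All cell lines were grown in 96-well plates and treated with compound for 48 hours. TGI marks complete inhibition of growth.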

Tests used:
Assay in all cases: DTP human tumour cell line panel, 48 h
[1] = tested on: 786-0 renal
[2] = tested on: A498 renal
[3] = tested on: A549 NSCLC
[4] = tested on: ACHN renal
[5] = tested on: BT-549 breast
[6] = tested on: CAKI-1 renal
[7] = tested on: CCRF-CEM leukemia
[8] = tested on: COLO 205 colon
[9] = tested on: DLD-1 colon
[10] = tested on: DMS 114 small cell lung
[11] = tested on: DMS 273 small cell lung
[12] = tested on: DU-145 prostate
[13] = tested on: EKVX NSCLC
[14] = tested on: HCC-2998 colon
[15] = tested on: HCT-116 colon
[16] = tested on: HCT-15 colon
[17] = tested on: HL-60(TB) leukemia
[18] = tested on: HOP-18 NSCLC
[19] = tested on: HOP-62 NSCLC
[20] = tested on: HOP-92 NSCLC
[21] = tested on: HT29 colon
[22] = tested on: IGROV1 ovarian
[23] = tested on: K-562 leukemia
[24] = tested on: KM12 colon
[25] = tested on: KM20L2 colon
[26] = tested on: LOX IMVI melanoma
[27] = tested on: LXFL 529 NSCLC
[28] = tested on: M14 melanoma
[29] = tested on: M19-MEL melanoma
[30] = tested on: MALME-3M melanoma
[31] = tested on: MCF7 breast
[32] = tested on: MDA-MB-231 breast
[33] = tested on: MDA-MB-435
[34] = tested on: MOLT-4 leukemia
[35] = tested on: NCI-H226 lung
[36] = tested on: NCI-H23 lung
[37] = tested on: NCI-H460 lung
[38] = tested on: NCI/ADR-RES ovarian
[39] = tested on: OVCAR-3 ovarian
[40] = tested on: OVCAR-4 ovarian
[41] = tested on: OVCAR-5 ovarian
[42] = tested on: OVCAR-8 ovarian
[43] = tested on: PC-3 prostate
[44] = tested on: RPMI-8226 leukemia
[45] = tested on: RXF 393 renal
[46] = tested on: RXF-631 renal
[47] = tested on: SF-268 CNS
[48] = tested on: SF-295 CNS
[49] = tested on: SF-539 CNS
[50] = tested on: SK-MEL-2 melanoma
[51] = tested on: SK-MEL-28 melanoma
[52] = tested on: SK-MEL-5 melanoma
[53] = tested on: SK-OV-3 ovarian
[54] = tested on: SN12C renal
[55] = tested on: SNB-19 CNS
[56] = tested on: SNB-75 CNS
[57] = tested on: SNB-78 CNS
[58] = tested on: SW-620 colon
[59] = tested on: TK-10 renal
[60] = tested on: U251 CNS
[61] = tested on: UACC-257 melanoma
[62] = tested on: UACC-62 melanoma
[63] = tested on: UO-31 renal
[64] = tested on: NCI-H522 lung
[65] = tested on: SR leukemia
[66] = tested on: XF 498 CNS

`O=C1C=C(c2c(O)ccc3ccccc23)c2ccccc2C1=O` was tested, and the TGI [1] was 4.89 µM, the TGI [2] was 13.4 µM and the TGI [3] was 25.7 µM. It also gave a TGI [4] of 11.7 µM, a TGI [5] of 5.32 µM and a TGI [6] of 24 µM. It also gave a TGI [7] of 7.55 µM, a TGI [8] of 21.7 µM and a TGI [9] of 16.4 µM. For the same compound, the TGI [10] was 6.71 µM, the TGI [11] was 11.3 µM and the TGI [12] was 24 µM. For the same compound, the TGI [13] was 11.9 µM, the TGI [14] was 26.5 µM and the TGI [15] was 8.06 µM. It also gave a TGI [16] of 13.1 µM, a TGI [17] of 15.3 µM and a TGI [18] of 23.3 µM. It also gave a TGI [19] of 33.5 µM, a TGI [20] of 5.09 µM and a TGI [21] of 27.2 µM. The TGI [22] was 9.01 µM, the TGI [23] was 23.4 µM and the TGI [24] was 11.8 µM. The TGI [25] was 32.1 µM, the TGI [26] was 4.42 µM and the TGI [27] was 2.96 µM. For the same compound, the TGI [28] was 16.8 µM, the TGI [29] was 8.81 µM and the TGI [30] was 26.7 µM. For the same compound, the TGI [31] was 2.11 µM, the TGI [32] was 8.79 µM and the TGI [33] was 5.86 µM. The TGI [34] was 4.41 µM, the TGI [35] was 27.9 µM and the TGI [36] was 4.92 µM. The TGI [37] was 26.8 µM, the TGI [38] was 8.96 µM and the TGI [39] was 6.02 µM. The TGI [40] was 3.79 µM, the TGI [41] was 25 µM and the TGI [42] was 5.3 µM. For the same compound, the TGI [43] was 4.2 µM, the TGI [44] was 15.7 µM and the TGI [45] was 5.06 µM. The TGI [46] was 32.9 µM, the TGI [47] was 17.2 µM and the TGI [48] was 12.4 µM. The TGI [49] was 4.36 µM, the TGI [50] was 15.8 µM and the TGI [51] was > 50 µM. For the same compound, the TGI [52] was 7.42 µM, the TGI [53] was 23.9 µM and the TGI [54] was 12.2 µM. It also gave a TGI [55] of 22.4 µM, a TGI [56] of 12.9 µM and a TGI [57] of 8.64 µM. It also gave a TGI [58] of 5.21 µM, a TGI [59] of 25.8 µM and a TGI [60] of 5.13 µM. For the same compound, the TGI [61] was 6.49 µM, the TGI [62] was 5.48 µM and the TGI [63] was 6.52 µM.
With `NC(=O)COc1ccccc1` the TGI [1] was > 100 µM, the TGI [2] was > 100 µM and the TGI [3] was > 100 µM. For the same compound, the TGI [4] was > 100 µM, the TGI [6] was > 100 µM and the TGI [7] was > 100 µM. The TGI [8] was > 100 µM, the TGI [9] was > 100 µM and the TGI [10] was > 100 µM. For the same compound, the TGI [11] was > 100 µM, the TGI [13] was > 100 µM and the TGI [14] was > 100 µM. The TGI [15] was > 100 µM, the TGI [16] was > 100 µM and the TGI [17] was > 100 µM. For the same compound, the TGI [19] was > 100 µM, the TGI [20] was > 100 µM and the TGI [21] was > 100 µM. For the same compound, the TGI [22] was > 100 µM, the TGI [23] was > 100 µM and the TGI [24] was > 100 µM. For the same compound, the TGI [25] was > 100 µM, the TGI [26] was > 100 µM and the TGI [27] was > 100 µM. The TGI [28] was > 100 µM, the TGI [29] was > 100 µM and the TGI [30] was > 100 µM. The TGI [34] was > 100 µM, the TGI [35] was > 100 µM and the TGI [36] was > 100 µM. The TGI [37] was > 100 µM, the TGI [64] was > 100 µM and the TGI [39] was > 100 µM. For the same compound, the TGI [40] was > 100 µM, the TGI [41] was > 100 µM and the TGI [42] was > 100 µM. For the same compound, the TGI [44] was > 100 µM, the TGI [45] was > 100 µM and the TGI [46] was > 100 µM. For the same compound, the TGI [47] was > 100 µM, the TGI [48] was > 100 µM and the TGI [49] was > 100 µM. The TGI [50] was > 100 µM, the TGI [51] was > 100 µM and the TGI [52] was > 100 µM. The TGI [53] was > 100 µM, the TGI [54] was > 100 µM and the TGI [55] was > 100 µM. The TGI [56] was > 100 µM, the TGI [57] was > 100 µM and the TGI [65] was > 100 µM. For the same compound, the TGI [58] was > 100 µM, the TGI [59] was > 100 µM and the TGI [60] was > 100 µM. For the same compound, the TGI [61] was > 100 µM, the TGI [62] was > 100 µM and the TGI [63] was > 100 µM. The TGI [66] was > 100 µM.
For `CCCCC#COP(=O)(OCC)OCC`, the TGI [1] was > 100 µM, the TGI [2] was > 100 µM and the TGI [3] was > 100 µM. For the same compound, the TGI [4] was > 100 µM, the TGI [6] was > 100 µM and the TGI [7] was > 100 µM. For the same compound, the TGI [8] was > 100 µM, the TGI [9] was > 100 µM and the TGI [10] was > 100 µM. The TGI [13] was > 100 µM, the TGI [14] was > 100 µM and the TGI [15] was > 100 µM. The TGI [16] was > 100 µM, the TGI [17] was > 100 µM and the TGI [19] was > 100 µM. The TGI [21] was > 100 µM, the TGI [22] was > 100 µM and the TGI [24] was > 100 µM. For the same compound, the TGI [25] was > 100 µM, the TGI [26] was > 100 µM and the TGI [27] was > 100 µM. The TGI [28] was > 100 µM, the TGI [29] was > 100 µM and the TGI [30] was > 100 µM. The TGI [34] was > 100 µM, the TGI [35] was > 100 µM and the TGI [36] was > 100 µM. For the same compound, the TGI [37] was > 100 µM, the TGI [64] was > 100 µM and the TGI [39] was > 100 µM. The TGI [40] was > 100 µM, the TGI [41] was > 100 µM and the TGI [42] was > 100 µM. The TGI [44] was > 100 µM, the TGI [46] was > 100 µM and the TGI [47] was > 100 µM. For the same compound, the TGI [48] was > 100 µM, the TGI [49] was > 100 µM and the TGI [50] was > 100 µM. The TGI [52] was > 100 µM, the TGI [53] was > 100 µM and the TGI [54] was > 100 µM. For the same compound, the TGI [55] was > 100 µM, the TGI [57] was > 100 µM and the TGI [65] was > 100 µM. For the same compound, the TGI [58] was > 100 µM, the TGI [59] was > 100 µM and the TGI [60] was > 100 µM. For the same compound, the TGI [61] was > 100 µM, the TGI [62] was > 100 µM and the TGI [63] was > 100 µM.
With `CC1=C2C(O)C(C(C)CO)C(O)CC2(C)C(O)CC1` (stereo unspecified) the TGI [1] was > 100 µM, the TGI [2] was > 100 µM and the TGI [3] was > 100 µM. For the same compound, the TGI [4] was > 100 µM, the TGI [6] was > 100 µM and the TGI [7] was > 100 µM. For the same compound, the TGI [8] was > 100 µM, the TGI [9] was > 100 µM and the TGI [10] was > 100 µM. The TGI [11] was > 100 µM, the TGI [13] was > 100 µM and the TGI [14] was > 100 µM. For the same compound, the TGI [15] was > 100 µM, the TGI [16] was > 100 µM and the TGI [17] was > 100 µM. For the same compound, the TGI [19] was > 100 µM, the TGI [20] was > 100 µM and the TGI [21] was > 100 µM. The TGI [22] was > 100 µM, the TGI [24] was > 100 µM and the TGI [25] was > 100 µM. For the same compound, the TGI [26] was > 100 µM, the TGI [27] was > 100 µM and the TGI [28] was > 100 µM. For the same compound, the TGI [29] was > 100 µM, the TGI [30] was > 100 µM and the TGI [34] was > 100 µM. For the same compound, the TGI [35] was > 100 µM, the TGI [37] was > 100 µM and the TGI [64] was > 100 µM. The TGI [39] was > 100 µM, the TGI [40] was > 100 µM and the TGI [41] was > 100 µM. For the same compound, the TGI [42] was > 100 µM, the TGI [44] was > 100 µM and the TGI [45] was > 100 µM. The TGI [46] was > 100 µM, the TGI [47] was > 100 µM and the TGI [48] was > 100 µM. The TGI [49] was > 100 µM, the TGI [51] was > 100 µM and the TGI [52] was > 100 µM. The TGI [53] was > 100 µM, the TGI [54] was > 100 µM and the TGI [55] was > 100 µM. For the same compound, the TGI [56] was > 100 µM, the TGI [57] was > 100 µM and the TGI [65] was > 100 µM. For the same compound, the TGI [58] was > 100 µM, the TGI [59] was > 100 µM and the TGI [60] was > 100 µM. The TGI [61] was > 100 µM, the TGI [62] was > 100 µM and the TGI [63] was > 100 µM.
